Data taken from US4839344A, “Polypeptide compounds having growth hormone releasing activity” (Eastman Kodak Company, priority 1987, dated 1989).
“And” between values parts separate entries of the source, which are not always exact repeats. Identical values can stand only once. Square brackets hold non-standard residues; d marks the D form. Ends that are not written are not given here.

Test system: growth hormone (GH) release
Test: In Vivo GH Release in Rats (serum GH by RIA)
Set-up: species or system immature female Sprague-Dawley rats
Conditions: rat serum, i.v., mean ± SEM, six rats
[1] = total dose 10 μg, sacrificed 10 minutes after final injection

| Substance | GH Released by Compound in Column A [1] | GH Released by Compound in Column A (total dose 20 (ng as printed), sacrificed 30 minutes after final injection) [ng/mL] |
| --- | --- | --- |
| CAH[dW]AW[dF]KC-NH2 (cysteine pairing not given here) [Compound 8758] | 37 ± 8 ng/mL and 26 ± 9 ng/mL | 52 ± 7 |
| AC[dW]AW[dF]KC-NH2 (cysteine pairing not given here) [Compound 9308] | 10 ± 1 ng/mL | – |
